Measurements published in the supplement of paper PMC10307832.

How the values were obtained:
Assay in all cases: relative viability (nuclei count vs DMSO), 5 days (fraction); higher = more cells survive
Afatinib + Luminespib = compound: CN(C)C/C=C/C(=O)Nc1cc2c(Nc3ccc(F)c(Cl)c3)ncnc2cc1O[C@H]1CCOC1 [Afatinib] + CCNC(=O)c1noc(-c2cc(C(C)C)c(O)cc2O)c1-c1ccc(CN2CCOCC2)cc1 [Luminespib] (partner 0.01 µM)
Summary of the method: (§1)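 After 5 days of treatment, lung cancer cells in 1536-well plates were fixed and stained in a single step (final 0.05% Triton X-100, 1% formaldehyde, 1 ug/ml Hoechst) and their nuclei counted on 4× images. Treatment had been applied by pin tool the day after seeding as one drug alone or as a fixed anchor-drug dose with five library-drug doses (not always all listed) in √10 steps. Relative viability is the nuclei count of treated wells divided by that of vehicle wells, and values are medians of duplicate plates.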

Afatinib + Decitabine = compound: CN(C)C/C=C/C(=O)Nc1cc2c(Nc3ccc(F)c(Cl)c3)ncnc2cc1O[C@H]1CCOC1 [Afatinib] + Nc1ncn([C@H]2C[C@H](O)[C@@H](CO)O2)c(=O)n1 [Decitabine] (partner 2 µM)
Summary of the method: as §1

Afatinib + Olaparib = compound: CN(C)C/C=C/C(=O)Nc1cc2c(Nc3ccc(F)c(Cl)c3)ncnc2cc1O[C@H]1CCOC1 [Afatinib] + O=C(c1cc(Cc2n[nH]c(=O)c3ccccc23)ccc1F)N1CCN(C(=O)C2CC2)CC1 [Olaparib] (partner 8 µM)
Summary of the method: as §1

Afatinib + Lapatinib = compound: CN(C)C/C=C/C(=O)Nc1cc2c(Nc3ccc(F)c(Cl)c3)ncnc2cc1O[C@H]1CCOC1 [Afatinib] + CS(=O)(=O)CCNCc1ccc(-c2ccc3ncnc(Nc4ccc(OCc5cccc(F)c5)c(Cl)c4)c3c2)o1 [Lapatinib] (partner 2 µM)
Summary of the method: as §1

Cell Line	relative viability (Afatinib + Luminespib; first compound 0.005 µM)	relative viability (Afatinib + Luminespib; first compound 0.01581 µM)	relative viability (Afatinib + Luminespib; first compound 0.05 µM)	relative viability (Afatinib + Luminespib; first compound 0.1581 µM)	relative viability (Afatinib + Luminespib; first compound 0.5 µM)	relative viability (Afatinib + Decitabine; first compound 0.005 µM)	relative viability (Afatinib + Decitabine; first compound 0.01581 µM)	relative viability (Afatinib + Decitabine; first compound 0.05 µM)	relative viability (Afatinib + Decitabine; first compound 0.1581 µM)	relative viability (Afatinib + Decitabine; first compound 0.5 µM)	relative viability (Afatinib + Olaparib; first compound 0.005 µM)	relative viability (Afatinib + Olaparib; first compound 0.01581 µM)	relative viability (Afatinib + Olaparib; first compound 0.05 µM)	relative viability (Afatinib + Olaparib; first compound 0.1581 µM)	relative viability (Afatinib + Olaparib; first compound 0.5 µM)	relative viability (Afatinib + Lapatinib; first compound 0.005 µM)	relative viability (Afatinib + Lapatinib; first compound 0.01581 µM)	relative viability (Afatinib + Lapatinib; first compound 0.05 µM)	relative viability (Afatinib + Lapatinib; first compound 0.1581 µM)	relative viability (Afatinib + Lapatinib; first compound 0.5 µM)
NCI-H441	0.442	0.431	0.325	0.249	0.222	0.241	0.233	0.225	0.277	0.229	0.491	0.521	0.649	0.441	0.512					
NCI-H1793	0.19	0.215	0.238	0.168	0.173	0.43	0.344	0.329	0.27	0.417	0.659	0.633	0.461	0.398	0.582	0.679	0.733	0.962	0.995	0.467
NCI-H23	0.226		0.2	0.209	0.216	0.327	0.314	0.278	0.317	0.309	0.331	0.303	0.37	0.291	0.333	1.34	1.23	1.08	1.04	1.01
HARA	0.719	0.327	0.425	0.334	0.458	0.548		0.413	0.325	0.349	0.688		0.344	0.462	0.391	0.727	0.668	0.608	0.688	0.888
NCI-H1792	0.389	0.695	0.464	0.376	0.41	0.505	0.592	0.489	0.522	0.513	0.437	0.531	0.506	0.526	0.489	0.999	0.783	0.825	0.972	0.971
NCI-H1703											0.538		0.411	0.297	0.445	1.76	1.02	1.08	0.921	0.753
NCI-H2342	0.713	0.648	0.699	0.627	0.583	0.706	0.698	0.718	0.569	0.573	0.375	0.457	0.411	0.347	0.406					
CAL-12T	0.865	0.595	0.361	0.279	0.27						0.763	0.668	0.616	0.47	0.497	0.694	0.757	0.714	0.546	0.638
NCI-H727	0.404		0.416	0.282	0.345	0.826	0.534	0.831	0.761	0.829	0.827	0.824	0.606	0.572	0.815	0.892	0.861	0.894	0.639	0.948
NCI-H2085	0.405	0.396	0.409	0.32	0.296	0.577	0.522	0.519	0.517	0.515	0.751	0.691	0.659	0.603	0.648	0.857	0.762	0.851	0.743	0.76
NCI-H1395	0.733	0.781	0.664	0.7	0.665	0.773	0.741	0.744	0.657	0.672	0.471	0.475	0.463	0.483	0.49	1.13	0.965	1.22	1.02	0.897
NCI-H1648						0.551	0.419	0.378	0.417	0.34	0.978	0.617	0.391	0.323	0.469					
NCI-H460	0.0369	0.0258	0.0533	0.0327	0.032	0.446	0.464	0.521	0.526	0.551	0.373	0.407	0.439	0.458	0.491	0.973	0.932	1.04	1.02	0.842
A549						0.28	0.272	0.278	0.232	0.299	0.321	0.451	0.359	0.304	0.375	0.974	0.979	1.01	0.893	0.997
IA-LM											1.07	0.821	0.947	0.761	0.805	0.935	0.867	0.753	0.828	0.708
EKVX	0.714	0.858	0.58	0.191	0.298	0.248	0.208	0.218	0.159	0.171	0.602	0.687	0.534	0.283	0.227	0.191	0.18	0.188	0.208	0.198
ChaGo-K-1	0.688	0.652	0.566	0.499	0.579	0.558	0.538	0.525	0.525	0.469	0.466	0.439	0.447	0.396	0.397					
NCI-H1755	0.287	0.367	0.587	0.408	0.49	0.725	0.693	0.728	0.695	0.661	0.906	0.857	0.921	0.864	0.813	1.11	1.03	1.09	1.04	1.07
NCI-H2228	0.141	0.127	0.136	0.132	0.143						0.935	0.518	0.704	0.506	0.579	1.29	1.01	0.958		1.03
